Measurements: patent US20150004110A1, “NOVEL ANTI-AGING AND DEPIGMENTING COSMETIC COMPOSITIONS” (DIVERCHIM, priority 2011, published 2015)

Key:
collagen VII = assay: Staining and immunolabelling of skin explant sections: collagen VII; format: cell-based, human; details: treated skin explant sections
Method: 1. Preparation of the explants • During abdominoplasty of a person, 45 skin explants were prepared. The explants were put in BEM medium (BIO-EC's Explants Medium) for survival at 37° C. in humid atmosphere, enriched with 5% CO2.
2. Application of the products • The solutions are prepared in DMSO from pure products, in order to obtain final concentrations of […] by incorporating an identical volume of 10 μl in each well and for each treatment. The treatment was carried out in the survival medium on days 0, 1, 2, 5 and 7.
3. Taking samples • On D0, the 3 explants of batch TO were taken and each explant was cut in two. One part was fixed in buffered formol for observation of the general morphology. The other was frozen and stored at −80° C. • On D5 and D9, 3 explants from each batch were taken and treated in the same way.
4. Histological treatment • After fixation for 48 hours in buffered formol, the samples were dehydrated and embedded in paraffin using a Leica 1020 automatic dehydrator. They were embedded according to procedure MO-H-153 using a Leica EG 1160 coating station. Sections of 5 μm were prepared according to procedure MO-H-173 using a Minot-type microtome, Leica RM 2125 and mounted on Superfrost® histological glass slides.
6. Staining and immunolabelling
Immunolabelling will be carried out on sections with the appropriate antibody. […]

[1] = test system: matrix metallopeptidase gene MMP9; assay: RT-qPCR expression of MMP9 in keratinocytes; format: cell-based, human; details: 10 μM
Method: The expression of the specific markers was evaluated by RT-qPCR (reverse transcription quantitative polymerase chain reaction) on messenger RNAs extracted from the cell lawns from each treatment. The transcriptomic profile contains 64 genes selected for their importance in keratinocyte differentiation. The PCR reactions (polymerase chain reactions) were carried out by quantitative PCR with the “Light Cycler” system (Roche Molecular System Inc.) according to the procedures recommended by the supplier. Normal human epidermal keratinocytes were incubated in the presence of compound 1 or a reference with calcium chloride. The expression of the specific markers was evaluated by RT-qPCR on the messenger RNAs extracted from the cell lawns from each treatment.

filaggrin = assay: In situ immunolabelling of filaggrin in keratinocytes; format: cell-based; details: normal human epidermal keratinocytes
Description: Transglutaminase K, TGK, and filaggrin are two protein markers of epidermal differentiation involved in arrangement of the keratin filaments and formation of the envelope of the stratum corneum.

prostaglandin E2 (PGE2) = assay: Release of PGE2 by NCTC-2544 keratinocytes stimulated by PMA; format: cell-based, human; details: NCTC-2544 stimulated by PMA
Method: (§1) The effects of compound 1 were evaluated on two routes of inflammation, the “chemokine” route and the “prostaglandin” route, by measuring the release of interleukin-8 (IL-8) and of prostaglandin E2 (PGE2) by a human keratinocyte line NCTC-2544 stimulated by phorbol-myristate acetate (PMA).

interleukin-8 (IL-8) = assay: Release of IL-8 by NCTC-2544 keratinocytes stimulated by PMA; format: cell-based, human; details: NCTC-2544 stimulated by PMA
Method: as §1

PPARγ (h) [2] = target: T1, PPARγ (h) (Homo sapiens, UniProt P37231); assay: PPARγ agonist effect, coactivator Alpha screen; format: biochemical
T1 construct: Cerep (contract laboratory that ran the assay)
T1 sequence (P37231 1-505): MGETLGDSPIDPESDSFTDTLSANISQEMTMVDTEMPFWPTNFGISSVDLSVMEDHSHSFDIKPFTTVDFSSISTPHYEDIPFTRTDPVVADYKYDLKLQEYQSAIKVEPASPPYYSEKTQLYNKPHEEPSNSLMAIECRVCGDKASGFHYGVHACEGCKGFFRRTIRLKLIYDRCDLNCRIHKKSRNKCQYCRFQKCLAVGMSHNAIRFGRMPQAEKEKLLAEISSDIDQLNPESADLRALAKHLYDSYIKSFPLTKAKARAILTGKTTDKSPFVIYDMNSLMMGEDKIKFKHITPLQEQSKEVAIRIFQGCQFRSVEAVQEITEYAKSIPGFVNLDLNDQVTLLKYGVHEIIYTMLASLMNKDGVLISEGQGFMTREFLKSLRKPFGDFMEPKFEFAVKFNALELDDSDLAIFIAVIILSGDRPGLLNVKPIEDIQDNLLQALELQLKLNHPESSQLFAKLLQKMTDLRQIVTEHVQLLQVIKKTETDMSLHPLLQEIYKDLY
Method: (§2) The agonist or antagonist activity of compound 1 on the PPAR receptors was tested by fluorescence techniques. • Material and Methods
(§3) The results are expressed as: • percentage of control specific agonist response (measured specific response/control specific agonist response)×100) and • percentage inhibition of the control specific agonist response (100−((measured specific response)/control specific agonist response)×100)) obtained in the presence of compound 1.
(§4) The EC50 values (concentration at which the maximum specific response is 50%) and the IC50 values (concentration at which the maximum control specific agonist response is inhibited by 50%) are determined by non-linear regression analysis of the concentration-response curves with a mean replicated value using adjustment of Hill's equation

PPARδ (h) = target: T2, PPARδ (h) (Homo sapiens, UniProt Q03181); assay: PPARδ antagonist effect, coactivator Alpha screen; format: biochemical
T2 sequence (Q03181 1-441): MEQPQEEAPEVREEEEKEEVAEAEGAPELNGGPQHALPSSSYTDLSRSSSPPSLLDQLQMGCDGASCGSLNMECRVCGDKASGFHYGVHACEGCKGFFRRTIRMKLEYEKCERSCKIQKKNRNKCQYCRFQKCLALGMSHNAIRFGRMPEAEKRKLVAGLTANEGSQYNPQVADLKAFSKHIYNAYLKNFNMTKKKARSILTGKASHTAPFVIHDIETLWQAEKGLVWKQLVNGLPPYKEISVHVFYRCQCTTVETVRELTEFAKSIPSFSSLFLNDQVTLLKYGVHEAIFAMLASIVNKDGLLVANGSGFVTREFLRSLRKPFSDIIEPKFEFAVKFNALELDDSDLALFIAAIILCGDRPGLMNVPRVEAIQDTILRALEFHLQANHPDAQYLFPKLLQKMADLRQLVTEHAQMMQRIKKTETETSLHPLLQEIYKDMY
Method: as §2, §3, §4
(§5) For the antagonists, the apparent dissociation constants (KB) were calculated using the modified Cheng-Prusoff equation

PPARγ (h) [3] = target: T1, PPARγ (h); assay: PPARγ antagonist effect, coactivator Alpha screen; format: biochemical
Method: as §2, §3, §4, §5

[4] = 10^−5 M, read-out: % Inhibition of control agonist response
[5] = 10^−6 M, read-out: % Inhibition of control agonist response
[6] = 10^−7 M, read-out: % Inhibition of control agonist response

Expression of the MMP9 gene [1]: inhibition of expression | % Control agonist response (PPARγ (h) [2]; 10^−5 M): 0% | % Control agonist response (PPARγ (h) [2]; 10^−6 M): 0% | % Control agonist response (PPARγ (h) [2]; 10^−7 M): 0% | PPARγ agonist activity (conclusion in words) (PPARγ (h) [2]; 10^−7 to 10^−5 M): not an agonist | inhibition at 10 µM (PPARδ (h); [4]): -5% | inhibition at 1 µM (PPARδ (h); [5]): -2% | inhibition at 0.1 µM (PPARδ (h); [6]): 0% | PPARδ antagonist activity (conclusion in words) (PPARδ (h); 10^−7 to 10^−5 M): not an antagonist | inhibition at 10 µM (PPARγ (h) [3]; [4]): 0% | inhibition at 1 µM (PPARγ (h) [3]; [5]): 0% | inhibition at 0.1 µM (PPARγ (h) [3]; [6]): 3% | PPARγ antagonist activity (conclusion in words) (PPARγ (h) [3]; 10^−7 to 10^−5 M): not an antagonist
SMILES: Oc1ccccc1CCOc1ccc(F)cc1 [Compound 1, 2-[2-(4-fluoro-phenoxy)-ethyl]-phenol]
Collagen VII along the dermal-epidermal junction (collagen VII): moderate overexpression | Protein expression of filaggrin (filaggrin): concentration-dependent stimulation of protein expression | Release of PGE2 (prostaglandin E2 (PGE2)): concentration-dependent inhibition | Release of IL-8 (interleukin-8 (IL-8)): without altering
